Molecular target: 5-hydroxytryptamine receptor 7 (Homo sapiens, UniProt P34969)
Assay: Displacement of [3H] D-lysergic acid diethylamide from 5-HT7R (unknown origin) transfected in HEK293 cells incubated for 1.5 hrs by microbeta scintillation counter analysis

Chain of 5-hydroxytryptamine receptor 7 (P34969 whole entry): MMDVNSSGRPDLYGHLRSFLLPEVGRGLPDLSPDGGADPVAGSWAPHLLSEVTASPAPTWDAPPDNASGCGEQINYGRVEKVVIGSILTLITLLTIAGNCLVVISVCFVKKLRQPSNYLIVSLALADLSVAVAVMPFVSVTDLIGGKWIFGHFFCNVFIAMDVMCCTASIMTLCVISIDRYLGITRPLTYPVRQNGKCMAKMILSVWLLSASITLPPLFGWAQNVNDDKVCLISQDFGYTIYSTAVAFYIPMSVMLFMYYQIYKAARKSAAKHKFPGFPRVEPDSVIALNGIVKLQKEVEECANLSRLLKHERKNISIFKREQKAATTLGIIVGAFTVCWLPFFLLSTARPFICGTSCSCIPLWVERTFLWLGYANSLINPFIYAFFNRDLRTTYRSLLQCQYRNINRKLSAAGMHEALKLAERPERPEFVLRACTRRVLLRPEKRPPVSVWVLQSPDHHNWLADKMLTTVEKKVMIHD

| Structure (SMILES) | Ki [nM] |
| --- | --- |
| CCNCCc1ccc(Cl)c(-c2ccccc2OC)c1 | 1.58 |
| CNCCc1ccc(Cl)c(-c2ccccc2OC)c1 | 2.8 |
